Here are results for seven compounds from ChEMBL document CHEMBL1146086, “Design, synthesis, and evaluation of near infrared fluorescent multimeric RGD peptides for targeting tumors” (J Med Chem, 2006).

For this experiment, the target named is Integrin alpha-V/beta-3 (Homo sapiens, UniProt P05106+P06756). In words: Displacement of [125I]echistatin from AlphaV-beta-3 integrin receptor. Format: protein-complex assay. A general note: Displacement assays read how much labelled ligand stays bound in the presence of the test substance.

Numbered stars: 1 amine (or outer) side, 2 acyl side, 3 side chain; on linkers, the order of the positions; unused ones are H or OH. Bridge positions count the residues as written; N and C are the ends. Peptide text beside a SMILES is read from it. I, II: the chains in the order shown. * marks the point of attachment. X2 = CC1(C)C(/C=C/C=C/C=C/C=C2/N(CCC(=O)[*:1])c3ccc4ccccc4c3C2(C)C)=[N+](CCC(=O)[*:2])c2ccc3ccccc3c21; X1 = CC1(C)C(/C=C/C=C/C=C/C=C2/N(CCC(=O)[*:1])c3ccc4ccccc4c3C2(C)C)=[N+](CC(=O)[*:2])c2ccc3ccccc3c21; Cypate = CC1(C)C(/C=C/C=C/C=C/C=C2/N(CCC(=O)*)c3ccc4ccccc4c3C2(C)C)=[N+](CCC(=O)O)c2ccc3ccccc3c21; X3 = CC1(C)C(/C=C/C=C/C=C/C=C2/N(CCC(=O)O)c3ccc4ccccc4c3C2(C)C)=[N+](CC(=O)*)c2ccc3ccccc3c21

Chain of Integrin alpha-V/beta-3 (P05106 27-788 limits assumed): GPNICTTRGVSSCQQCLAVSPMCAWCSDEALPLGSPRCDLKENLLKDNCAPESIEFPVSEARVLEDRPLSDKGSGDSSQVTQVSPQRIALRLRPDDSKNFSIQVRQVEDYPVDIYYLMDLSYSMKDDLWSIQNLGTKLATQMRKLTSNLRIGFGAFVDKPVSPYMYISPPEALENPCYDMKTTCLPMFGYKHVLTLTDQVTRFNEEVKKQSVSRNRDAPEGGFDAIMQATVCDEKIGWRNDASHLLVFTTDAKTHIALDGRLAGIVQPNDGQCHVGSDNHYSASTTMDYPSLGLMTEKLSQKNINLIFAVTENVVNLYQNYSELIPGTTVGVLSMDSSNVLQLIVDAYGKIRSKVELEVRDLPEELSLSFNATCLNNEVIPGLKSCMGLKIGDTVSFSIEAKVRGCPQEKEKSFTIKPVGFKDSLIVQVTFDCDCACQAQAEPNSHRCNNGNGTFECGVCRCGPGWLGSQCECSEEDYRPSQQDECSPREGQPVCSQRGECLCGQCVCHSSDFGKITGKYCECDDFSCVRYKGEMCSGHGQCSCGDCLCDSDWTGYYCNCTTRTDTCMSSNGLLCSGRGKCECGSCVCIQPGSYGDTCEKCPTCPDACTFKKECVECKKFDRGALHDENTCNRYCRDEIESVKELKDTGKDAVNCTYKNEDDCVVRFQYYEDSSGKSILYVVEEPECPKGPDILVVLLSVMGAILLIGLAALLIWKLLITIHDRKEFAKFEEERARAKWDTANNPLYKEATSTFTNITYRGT
Chain of Integrin alpha-V/beta-3 (P06756 31-889 limits assumed): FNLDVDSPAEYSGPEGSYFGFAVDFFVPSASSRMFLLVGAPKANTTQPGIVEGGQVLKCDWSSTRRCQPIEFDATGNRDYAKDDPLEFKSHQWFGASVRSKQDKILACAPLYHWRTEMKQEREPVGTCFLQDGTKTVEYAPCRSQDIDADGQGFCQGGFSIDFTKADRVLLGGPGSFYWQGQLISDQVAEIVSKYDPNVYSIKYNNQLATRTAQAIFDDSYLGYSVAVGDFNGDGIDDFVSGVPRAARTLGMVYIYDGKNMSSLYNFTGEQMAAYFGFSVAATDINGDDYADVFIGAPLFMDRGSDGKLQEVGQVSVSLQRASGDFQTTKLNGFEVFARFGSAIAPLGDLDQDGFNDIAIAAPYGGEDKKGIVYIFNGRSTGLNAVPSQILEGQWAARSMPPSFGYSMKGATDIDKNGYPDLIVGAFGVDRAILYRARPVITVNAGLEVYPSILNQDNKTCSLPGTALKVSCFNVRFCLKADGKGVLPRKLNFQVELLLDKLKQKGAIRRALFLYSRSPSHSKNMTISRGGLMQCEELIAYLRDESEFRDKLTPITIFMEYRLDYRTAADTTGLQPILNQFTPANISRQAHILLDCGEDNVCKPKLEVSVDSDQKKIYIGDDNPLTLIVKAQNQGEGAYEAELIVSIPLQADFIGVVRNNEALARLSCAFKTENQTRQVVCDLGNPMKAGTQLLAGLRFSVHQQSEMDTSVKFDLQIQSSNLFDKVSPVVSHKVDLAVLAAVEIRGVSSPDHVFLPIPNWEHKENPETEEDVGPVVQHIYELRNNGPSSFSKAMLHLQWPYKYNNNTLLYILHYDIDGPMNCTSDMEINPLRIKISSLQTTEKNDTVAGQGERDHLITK
Chain of Integrin alpha-V/beta-3 (P06756 891-1048 limits assumed): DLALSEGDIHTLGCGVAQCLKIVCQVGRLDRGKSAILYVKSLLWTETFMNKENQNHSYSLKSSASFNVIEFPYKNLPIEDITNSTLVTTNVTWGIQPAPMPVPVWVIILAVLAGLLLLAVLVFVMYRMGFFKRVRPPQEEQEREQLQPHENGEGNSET

Usually IC50 stands for the midpoint of a concentration-inhibition curve. Lower therefore signals inhibition by little substance. For the compound `CC1(C)C(/C=C/C=C/C=C/C=C2/N(CCC(=O)NCCCC[C@@H]3NC(=O)[C@@H](Cc4ccccc4)NC(=O)[C@H](CC(=O)O)NC(=O)CNC(=O)[C@H](CCCNC(=N)N)NC3=O)c3ccc4ccccc4c3C2(C)C)=[N+](CCC(=O)O)c2ccc3ccccc3c21`, the IC50 is 63.9 nM.

In turn, `CC1(C)C(/C=C/C=C/C=C/C=C2/N(CCC(=O)O)c3ccc4ccccc4c3C2(C)C)=[N+](CC(=O)N[C@@H](CCCN=C(N)N)C(=O)NCC(=O)N[C@@H](CC(=O)O)C(=O)N[C@@H](CCCN=C(N)N)C(=O)NCC(=O)N[C@@H](CC(=O)O)C(N)=O)c2ccc3ccccc3c21` yielded a concentration for half-maximal inhibition (IC50) of 730 nM.

As to `CC1(C)C(/C=C/C=C/C=C/C=C2/N(CCC(=O)O)c3ccc4ccccc4c3C2(C)C)=[N+](CC(=O)N[C@@H](CCCN=C(N)N)C(=O)NCC(=O)N[C@@H](CC(=O)O)C(=O)N[C@@H](CCCN=C(N)N)C(=O)NCC(=O)N[C@@H](CC(=O)O)C(=O)N[C@@H](CCCN=C(N)N)C(=O)NCC(=O)N[C@@H](CC(=O)O)C(N)=O)c2ccc3ccccc3c21` (X3-RGDRGDRGD-NH2), the IC50 came out at 481 nM.

Compound `CC1(C)C(/C=C/C=C/C=C/C=C2/N(CCC(=O)N[C@@H](CCCN=C(N)N)C(=O)NCC(=O)N[C@@H](CC(=O)O)C(=O)N[C@@H](CCCN=C(N)N)C(=O)NCC(=O)N[C@@H](CC(=O)O)C(=O)N[C@@H](CCCN=C(N)N)C(=O)NCC(=O)N[C@@H](CC(=O)O)C(=O)N[C@@H](CCCN=C(N)N)C(=O)NCC(=O)N[C@@H](CC(=O)O)C(N)=O)c3ccc4ccccc4c3C2(C)C)=[N+](CCC(=O)N[C@@H](CCCN=C(N)N)C(=O)NCC(=O)N[C@@H](CC(=O)O)C(=O)N[C@@H](CCCN=C(N)N)C(=O)NCC(=O)N[C@@H](CC(=O)O)C(=O)N[C@@H](CCCN=C(N)N)C(=O)NCC(=O)N[C@@H](CC(=O)O)C(=O)N[C@@H](CCCN=C(N)N)C(=O)NCC(=O)N[C@@H](CC(=O)O)C(N)=O)c2ccc3ccccc3c21` (I: RGDRGDRGDRGD-NH2 / II: RGDRGDRGDRGD-NH2; linker I:N-II:N via X2) registered an IC50 of 79.6 nM.

Turning to `CC1(C)C(/C=C/C=C/C=C/C=C2/N(CCC(=O)N[C@@H](CCCN=C(N)N)C(=O)NCC(=O)N[C@@H](CC(=O)O)C(=O)N[C@@H](CCCN=C(N)N)C(=O)NCC(=O)N[C@@H](CC(=O)O)C(N)=O)c3ccc4ccccc4c3C2(C)C)=[N+](CC(=O)N[C@@H](CCCN=C(N)N)C(=O)NCC(=O)N[C@@H](CC(=O)O)C(=O)N[C@@H](CCCN=C(N)N)C(=O)NCC(=O)N[C@@H](CC(=O)O)C(N)=O)c2ccc3ccccc3c21`, the 50% inhibitory concentration (IC50) came to 104 nM.

Turning to `CC1(C)C(/C=C/C=C/C=C/C=C2/N(CCC(=O)N[C@@H](CCCN=C(N)N)C(=O)NCC(=O)N[C@@H](CC(=O)O)C(=O)N[C@@H](CCCN=C(N)N)C(=O)NCC(=O)N[C@@H](CC(=O)O)C(=O)N[C@@H](CCCN=C(N)N)C(=O)NCC(=O)N[C@@H](CC(=O)O)C(N)=O)c3ccc4ccccc4c3C2(C)C)=[N+](CC(=O)N[C@@H](CCCN=C(N)N)C(=O)NCC(=O)N[C@@H](CC(=O)O)C(=O)N[C@@H](CCCN=C(N)N)C(=O)NCC(=O)N[C@@H](CC(=O)O)C(=O)N[C@@H](CCCN=C(N)N)C(=O)NCC(=O)N[C@@H](CC(=O)O)C(N)=O)c2ccc3ccccc3c21` (I: RGDRGDRGD-NH2 / II: RGDRGDRGD-NH2; linker I:N-II:N via X1), the IC50 came to 132 nM.

Consider `CC1(C)C(/C=C/C=C/C=C/C=C2/N(CCC(=O)N[C@@H](CCCN=C(N)N)C(=O)NCC(=O)N[C@@H](CC(=O)O)C(=O)N[C@@H](CCCN=C(N)N)C(=O)NCC(=O)N[C@@H](CC(=O)O)C(=O)N[C@@H](CCCN=C(N)N)C(=O)NCC(=O)N[C@@H](CC(=O)O)C(=O)N[C@@H](CCCN=C(N)N)C(=O)NCC(=O)N[C@@H](CC(=O)O)C(N)=O)c3ccc4ccccc4c3C2(C)C)=[N+](CCC(=O)O)c2ccc3ccccc3c21` (Cypate-RGDRGDRGDRGD-NH2), for which the 50% inhibitory concentration (IC50) is 259 nM.
